Test results published in article PMC11149917, “Translational and Therapeutic Evaluation of RAS-GTP Inhibition by RMC-6236 in RAS-Driven Cancers” (Cancer Discovery, 2024).
Read-outs that look alike come from different tables or passages of the source.

Assay: Mouse blood and tissue PK (LC/MS-MS)
Format: in vivo
Details: for Kp: tumor relative to whole blood
Procedure: For single-dose PKPD study, mice were randomized and assigned into groups (n = 3/dose/time point). […] Blood and tissues, including the tumor, brain, colon, ear skin, and muscle, were harvested at indicated time points. […] The whole blood, tumor, brain, colon, and ear skin concentrations of RMC-6236 were determined using liquid chromatography–tandem mass spectrometry (LC/MS-MS) methods. […] After thorough mixing and centrifugation, the supernatant was diluted with water or directly analyzed on a Sciex 5500 or Sciex 6500+ triple quadrupole mass spectrometer equipped with an ACQUITY or Shimadzu UPLC system. […] Bioanalysis on blood and tissue samples from xenograft models was run at Pharmaron and Wuxi AppTec. Concentrations reported as below the quantification limit were treated as zero for PK analysis. PK parameters were calculated by noncompartmental analysis of the concentration–time profiles using Phoenix WinNonLin (version 8.3 Certara). Apparent terminal elimination half-life (t1/2) values were calculated as ln(2)/k, where k represents the terminal elimination rate constant. Area under the concentration–time curve (AUC) values were estimated using a linear trapezoidal method. AUClast values were calculated from the dosing time to the last quantifiable concentration. Maximum concentration (Cmax) was recorded as observed.

[1] = NCI-H2122 (25 mg/kg), single dose

In the case of `CCn1c(-c2cc(N3CCN(C)CC3)cnc2[C@H](C)OC)c2c3cc(ccc31)-c1csc(n1)C[C@H](NC(=O)[C@H]1C[C@@H]1C)C(=O)N1CCC[C@H](N1)C(=O)OCC(C)(C)C2` [RMC-6236], the “Tumor AUClast” value [1] is reported as 50057 ng·h/mL, the “Tumor Cmax” value [1] is reported as 3350 ng/mL and the “Brain Cmax” value (Naïve Mice #1 (10 mg/kg), single dose) is reported as 25 ng/mL. For the same compound, the “Brain Cmax” value (Naïve Mice #1 (50 mg/kg), single dose) was 161 ng/mL, the concentration at 4 h (mouse, ear skin, oral, 25 mg/kg, sheet Ear Skin, model KP-4, study KP-4 #5, 25 mg/kg, read-out: RMC-6236 (nM) Tumor) was 2790 nM and the concentration at 8 h (mouse, ear skin, oral, 25 mg/kg, sheet Ear Skin, model KP-4, study KP-4 #5, 25 mg/kg, 8h, read-out: RMC-6236 (nM) Tumor) was 1610 nM. The concentration at 48 h (mouse, ear skin, oral, 25 mg/kg, sheet Ear Skin, model KP-4, study KP-4 #5, 25 mg/kg, 48h, read-out: RMC-6236 (nM) Tumor) was 221 nM, the Kp (mouse, oral, 3 mg/kg, NCI-H441 (3 mg/kg), single dose, read-out: Tumor/Blood AUC Ratio) was 5.4 and the Kp (mouse, oral, 10 mg/kg, NCI-H441 (10 mg/kg), single dose, read-out: Tumor/Blood AUC Ratio) was 4.6. For the same compound, the Kp (mouse, oral, 25 mg/kg, HPAC (25 mg/kg), single dose, read-out: Tumor/Blood AUC Ratio) was 6.6, the Kp (mouse, oral, 25 mg/kg, KP-4 (25 mg/kg), single dose, read-out: Tumor/Blood AUC Ratio) was 6.4 and the Kp (mouse, oral, 25 mg/kg, NCI-H358 (25 mg/kg), single dose, read-out: Tumor/Blood AUC Ratio) was 5.9. It also gave a Kp (mouse, oral, 25 mg/kg, NCI-H441 #2 (25 mg/kg), QD x 10 days, read-out: Tumor/Blood AUC Ratio) of 4.9, a Kp (mouse, oral, 25 mg/kg, NCI-H441 (25 mg/kg), single dose, read-out: Tumor/Blood AUC Ratio) of 6.1 and a Kp (mouse, oral, 25 mg/kg, NCI-H2122 (25 mg/kg), single dose, read-out: Tumor/Blood AUC Ratio) of 6.3. For the same compound, the Kp (mouse, oral, various xenograft tumors, read-out: exposure in xenograft tumors relative to blood) was 3 to 7, the concentration at 8 h (mouse, tumor, oral, 0.3 mg/kg, HPAC #11, 0.3 mg/kg, 8h, individual animals, read-out: RMC-6236 (nM) Tumor) was 37 nM and the concentration at 24 h (mouse, tumor, oral, 0.3 mg/kg, NCI-H441 xenograft tumor, study NCI-H441#10, 0.3 mg/kg, 24h, read-out: RMC-6236 (nM) Tumor) was 36.8 nM. It also gave a concentration at 8 h (mouse, tumor, oral, 0.3 mg/kg, NCI-H441 xenograft tumor, study NCI-H441#13, 0.3 mg/kg, 8h, read-out: RMC-6236 (nM) Tumor) of 89.5 nM, a concentration at 8 h (mouse, tumor, oral, 1 mg/kg, HPAC #11, 1 mg/kg, 8h, individual animals, read-out: RMC-6236 (nM) Tumor) of 216 nM and a concentration at 8 h (mouse, tumor, oral, 1 mg/kg, NCI-H441 xenograft tumor, study NCI-H441#10, 1 mg/kg, 8h, read-out: RMC-6236 (nM) Tumor) of 129 nM. For the same compound, the concentration at 8 h (mouse, tumor, oral, 1 mg/kg, NCI-H441 xenograft tumor, study NCI-H441#13, 1 mg/kg, 8h, read-out: RMC-6236 (nM) Tumor) was 114 nM, the concentration at 24 h (mouse, tumor, oral, 1 mg/kg, NCI-H441 xenograft tumor, study NCI-H441#13, 1 mg/kg, 24h, read-out: RMC-6236 (nM) Tumor) was 53.2 nM and the concentration at 8 h (mouse, tumor, oral, 3 mg/kg, HPAC #4, 3 mg/kg, 8h, individual animals, read-out: RMC-6236 (nM) Tumor) was 245 nM. For the same compound, the concentration at 24 h (mouse, tumor, oral, 3 mg/kg, HPAC #4, 3 mg/kg, 24h, individual animals, read-out: RMC-6236 (nM) Tumor) was 205 nM, the concentration at 48 h (mouse, tumor, oral, 3 mg/kg, HPAC #4, 3 mg/kg, 48h, individual animals, read-out: RMC-6236 (nM) Tumor) was 31.9 nM and the concentration at 4 h (mouse, tumor, oral, 3 mg/kg, KP-4, study KP-4 #6, 3 mg/kg, read-out: RMC-6236 (nM) Tumor) was 264 nM. It also gave a concentration at 8 h (mouse, tumor, oral, 3 mg/kg, KP-4, study KP-4 #6, 3 mg/kg, 8h, read-out: RMC-6236 (nM) Tumor) of 340 nM, a concentration at 12 h (mouse, tumor, oral, 3 mg/kg, KP-4, study KP-4 #6, 3 mg/kg, 12h, read-out: RMC-6236 (nM) Tumor) of 298 nM and a concentration at 48 h (mouse, tumor, oral, 3 mg/kg, KP-4, study KP-4 #6, 3 mg/kg, 48h, read-out: RMC-6236 (nM) Tumor) of 29 nM. The concentration at 24 h (mouse, tumor, oral, 3 mg/kg, NCI-H441 xenograft tumor, study NCI-H441#6, 3 mg/kg, 24h, read-out: RMC-6236 (nM) Tumor) was 159 nM, the concentration at 48 h (mouse, tumor, oral, 3 mg/kg, NCI-H441 xenograft tumor, study NCI-H441#6, 3 mg/kg, 48h, read-out: RMC-6236 (nM) Tumor) was 63 nM and the concentration at 4 h (mouse, tumor, oral, 10 mg/kg, HPAC #4, 10 mg/kg, individual animals, read-out: RMC-6236 (nM) Tumor) was 817 nM. The concentration at 8 h (mouse, tumor, oral, 10 mg/kg, HPAC #4, 10 mg/kg, 8h, individual animals, read-out: RMC-6236 (nM) Tumor) was 1230 nM, the concentration at 24 h (mouse, tumor, oral, 10 mg/kg, HPAC #4, 10 mg/kg, 24h, individual animals, read-out: RMC-6236 (nM) Tumor) was 300 nM and the concentration at 48 h (mouse, tumor, oral, 10 mg/kg, HPAC #4, 10 mg/kg, 48h, individual animals, read-out: RMC-6236 (nM) Tumor) was 128 nM. The concentration at 48 h (mouse, tumor, oral, 10 mg/kg, KP-4, study KP-4 #6, 10 mg/kg, 48h, read-out: RMC-6236 (nM) Tumor) was 235 nM, the concentration at 1 h (mouse, tumor, oral, 10 mg/kg, Model Validation Dataset, 10mg/kg_study6, 1 h, read-out: Tumor Concentration) was 340 nM and the concentration at 8 h (mouse, tumor, oral, 10 mg/kg, Model Validation Dataset, 10mg/kg_study6, 8 h, read-out: Tumor Concentration) was 1010 nM. For the same compound, the concentration at 24 h (mouse, tumor, oral, 10 mg/kg, Model Validation Dataset, 10mg/kg_study6, 24 h, read-out: Tumor Concentration) was 353 nM, the concentration at 48 h (mouse, tumor, oral, 10 mg/kg, Model Validation Dataset, 10mg/kg_study6, 48 h, read-out: Tumor Concentration) was 214 nM and the concentration at 8 h (mouse, tumor, oral, 10 mg/kg, NCI-H441 xenograft tumor, study NCI-H441#6, 10 mg/kg, 8h, read-out: RMC-6236 (nM) Tumor) was 904 nM. It also gave a concentration at 24 h (mouse, tumor, oral, 10 mg/kg, NCI-H441 xenograft tumor, study NCI-H441#6, 10 mg/kg, 24h, read-out: RMC-6236 (nM) Tumor) of 519 nM, a concentration at 48 h (mouse, tumor, oral, 10 mg/kg, NCI-H441 xenograft tumor, study NCI-H441#6, 10 mg/kg, 48h, read-out: RMC-6236 (nM) Tumor) of 213 nM and a concentration at 8 h (mouse, tumor, oral, 10 mg/kg, NCI-H441 xenograft tumor, study NCI-H441#10, 10 mg/kg, 8h, read-out: RMC-6236 (nM) Tumor) of 685 nM. For the same compound, the concentration at 24 h (mouse, tumor, oral, 10 mg/kg, NCI-H441 xenograft tumor, study NCI-H441#10, 10 mg/kg, 24h, read-out: RMC-6236 (nM) Tumor) was 541 nM and the concentration at 48 h (mouse, tumor, oral, 10 mg/kg, NCI-H441 xenograft tumor, study NCI-H441#10, 10 mg/kg, 48h, read-out: RMC-6236 (nM) Tumor) was 153 nM.
